Data set [1] is described as follows: in vitro dissolution (acid/base dissolution bath, USP apparatus, HPLC). It counts as physicochemical. The method, then: The amount of active dissolution over time, e.g., guaifenesin and/or phenylephrine in the tablets or capsules disclosed herein below may be tested as follows. Briefly, in vitro guaifenesin or phenylephrine release may be determined using an acid/base dissolution bath, e.g., a standard USP 23/NF Drug Release Apparatus. Dissolution vessels of a USP calibrated dissolution bath, equipped with shafts and paddles, are filled with 675 ml of 0.1N hydrochloric acid at 37.0 degrees Centigrade. The bath and vessels are maintained at a temperature of 37.0±0.5 degrees Centigrade throughout a standard 7 hour dissolution test. […] One tablet or capsule is dropped into each vessel.
At the testing intervals, e.g., 1 minute, 10, 10, 30, 45, 60 or 90 minutes, 2, 3, 4, 6, 7, 9 or 12 hour testing intervals, an aliquot, e.g., 5 mls of dissolution solution is withdrawn from each vessel, filtered (e.g., through a 10-22 micron polyethylene filter) and tested using an HPLC. To stop the dissolution a strong base may be added to the sample, e.g., 0.2M sodium phosphate tribasic to increase the pH of the solution to about 6.8. The percent dissolution is determined using HPLC.

Data set [2] is described as follows: accelerated stability of capsules (dissolution and assay over time). The class given is physicochemical.
From the text: The material was placed on accelerated stability.
Stability: Capsules were studied for stability.
The conditions of data set [3]: water and alcohol; cited from earlier work.

Turning to `COc1ccccc1OCC(O)CO` (stereo not shown) [Guaifenesin, 3(2-methoxyphenoxy)-1,2-propanediol], in data set [1] (sustain releasing both actives), the “release profile for gauifenesin” value is given as “poor release profile”. Further, the “potency on accelerated stability” value in data set [2] is recorded as “stable potency”. The released immediately in data set [2] (capsules on accelerated stability) is 100%. The solubility result in data set [3] is “soluble in water and alcohol”.

Consider `CNC[C@@H](O)c1cccc(O)c1.Cl` [Phenylephrine hydrochloride, (S)-3-hydroxy-α[(methylamino)methyl]benzenemethanol hydrochloride], for which the release of phenylephrine result in data set [1] (phenylephrine overcoated with immediate release gauifenesin) is on record as “slowed the release of the phenylephrine to an unacceptable level”. Besides, the “dissolution rate of phenylephrine” value in data set [1] (when combined with Gauifenesin DC) is “accelerated”. The release profile entry in data set [2] (capsules on accelerated stability, month to month) is listed as “first order release profile consistent with an 8 hour product”.
